Measurements from the supplement of paper PMC10307832.

What was measured:
Experiment in all cases: relative viability (nuclei count vs DMSO), 5 days (fraction); higher = more cells survive
Crenolanib + Palbociclib = compound: CC1(COc2ccc3c(c2)ncn3-c2ccc3cccc(N4CCC(N)CC4)c3n2)COC1 [Crenolanib] + CC(=O)c1c(C)c2cnc(Nc3ccc(N4CCNCC4)cn3)nc2n(C2CCCC2)c1=O [Palbociclib] (partner 0.5 µM)
Procedure, shortened: (§1)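 The day after seeding in 1536-well plates, lung cancer cell lines were treated by pin tool with a single drug, or with a fixed anchor-drug dose together with five library-drug doses (not always all listed) in √10 steps. After 5 days, a combined fix-and-stain solution (final 0.05% Triton X-100, 1% formaldehyde, 1 ug/ml Hoechst) was added. Nuclei counted on 4× images gave relative viability as treated counts over vehicle counts, reported as the median of duplicate plates.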

Tivantinib + Navitoclax = compound: O=C1NC(=O)[C@@H](c2cn3c4c(cccc24)CCC3)[C@@H]1c1c[nH]c2ccccc12 [Tivantinib] + CC1(C)CCC(c2ccc(Cl)cc2)=C(CN2CCN(c3ccc(C(=O)NS(=O)(=O)c4ccc(N[C@H](CCN5CCOCC5)CSc5ccccc5)c(S(=O)(=O)C(F)(F)F)c4)cc3)CC2)C1 [Navitoclax] (partner 0.5 µM)
Procedure, shortened: as §1

Tivantinib + Pictilisib = compound: O=C1NC(=O)[C@@H](c2cn3c4c(cccc24)CCC3)[C@@H]1c1c[nH]c2ccccc12 [Tivantinib] + CS(=O)(=O)N1CCN(Cc2cc3nc(-c4cccc5[nH]ncc45)nc(N4CCOCC4)c3s2)CC1 [Pictilisib] (partner 1 µM)
Procedure, shortened: as §1

Tivantinib + Dasatinib = compound: O=C1NC(=O)[C@@H](c2cn3c4c(cccc24)CCC3)[C@@H]1c1c[nH]c2ccccc12 [Tivantinib] + Cc1nc(Nc2ncc(C(=O)Nc3c(C)cccc3Cl)s2)cc(N2CCN(CCO)CC2)n1 [Dasatinib] (partner 0.075 µM)
Procedure, shortened: as §1

UMC-11
relative viability (Crenolanib + Palbociclib; first compound 0.01 µM): 0.391 | relative viability (Crenolanib + Palbociclib; first compound 0.03162 µM): 0.334 | relative viability (Crenolanib + Palbociclib; first compound 0.1 µM): 0.349 | relative viability (Crenolanib + Palbociclib; first compound 0.3162 µM): 0.286 | relative viability (Crenolanib + Palbociclib; first compound 1 µM): 0.352 | relative viability (Tivantinib + Navitoclax; first compound 0.01 µM): 0.316 | relative viability (Tivantinib + Navitoclax; first compound 0.03162 µM): 0.334 | relative viability (Tivantinib + Navitoclax; first compound 0.1 µM): 0.29 | relative viability (Tivantinib + Navitoclax; first compound 0.3162 µM): 0.34 | relative viability (Tivantinib + Pictilisib; first compound 0.01 µM): 0.733 | relative viability (Tivantinib + Pictilisib; first compound 0.03162 µM): 0.423 | relative viability (Tivantinib + Pictilisib; first compound 0.1 µM): 0.75 | relative viability (Tivantinib + Pictilisib; first compound 0.3162 µM): 0.954 | relative viability (Tivantinib + Dasatinib; first compound 0.01 µM): 0.43 | relative viability (Tivantinib + Dasatinib; first compound 0.03162 µM): 0.491 | relative viability (Tivantinib + Dasatinib; first compound 0.1 µM): 0.421 | relative viability (Tivantinib + Dasatinib; first compound 0.3162 µM): 0.614
